Data as given in EP4810052A2, “HCRHR2 SELECTIVE POLYPEPTIDES” (Gubra A/S, priority 2023, dated 2026).
Starred links: 1 amine or outer side, 2 acyl side, 3 side chain; linkers in the order of their positions; H or OH if unused. Non-standard residues stand in square brackets, D forms with d. Residues, ends and D or L forms follow the SMILES beside them. Groups on a side chain read outwards from the residue. *: point of attachment. C20 diacid = O=C(O)CCCCCCCCCCCCCCCCCCC(=O)*; γGlu = O=C(O)[C@H](CCC(=O)[*:2])N[*:1]; NMeI = CC[C@H](C)[C@H](NC)C(=O)O; Nle = CCCC[C@H](N)C(=O)O; AEEA = NCCOCCOCC(=O)O; Aib = CC(C)(N)C(=O)O

Legend:
[1] = Acute effects on hemodynamics in anesthetized pigs; type: in vivo, Göttingen minipigs; details: anesthetized minipigs, ascending doses
Experimental: Göttingen minipigs were anesthetized and instrumented to continuous monitor hemodynamics during baseline measurement (0.5h), vehicle treatment (0.5h) and ascending doses of SEQ ID NO: 215 each 0.5 hours (10, 30, 100 and 300 µg/kg/min) and compared to a similar setup using Dobutamine (1, 3, 10 and 20 µg/kg/min) and vehicle (NaCl).

[2] = Telemetry in mice (blood pressure, heart frequency); type: in vivo
Experimental: Blood pressure and heart frequency were monitored in freely moving conscious mice by radiotelemetry (PA-C10, Data Sciences). Briefly, analgesia with metamizole (100 mg / kg sc) was performed. For implantation of the telemetry transmitter, the animals were anesthetized with isoflurane with 5% induction and 2% maintenance. The neck was opened in the area of the hyoid bone up to the sternum in the median line. A subcutaneous pocket for the transmitter housing was prepared. The dextra carotid artery was then bluntly exposed and clamped. The […] was pushed caudally into the carotid artery through an incision. The catheter was fixed with a monofilament prolene thread, which also closed the incision. The vessel was also ligated cranially, and the clamp was then removed. The transmitter housing was pushed subcutaneously into a prepared skin pocket on the side opposite the catheter. Finally, the skin wound was closed. Postoperatively, an antibiotic (Ursocyclin® 10, Serumwerk Bernburg AG, Germany; 400 mg/l drinking water for 10 days) and an analgesic (Rimadyl®, 4 mg/kg sc for 3 days) were administered postoperatively.
For arterial blood pressure measurements, the animals were kept in a 12h: 12h day night cycle in a suitable room for at least one day before the first measurement. Animals were administrated s.c once daily in the morning for 7 consecutive days with either 1) Placebo, 2) SEQ ID NO: 3, 10 nmol/kg, 3) SEQ ID NO: 3, 30 nmol/kg or 4) SEQ ID NO: 3, 100 nmol/kg in a cross over design with 2 animals per group (n = 6-8) per week and with 1 week washout between treatments. The telemetric measurement took place over 24 hours.
For statistical analysis, 5 hours means were calculated starting from one hour after dosing and one hour after lights off. All data were evaluated using a 2-way ANOVA with Dunnett's test.

[3] = conscious healthy mice, s.c. once daily 7 days, 10-100 nmol/kg
[4] = mice, 10 nmol/kg, 1. dark period
[5] = mice, 10 nmol/kg, 2. dark period
[6] = mice, 10 nmol/kg, 3. dark period
[7] = mice, 10 nmol/kg, 4. dark period
[8] = mice, 10 nmol/kg, 5. dark period
[9] = mice, 10 nmol/kg, 6. dark period
[10] = mice, 10 nmol/kg, Baseline dark period
[11] = mice, 30 nmol/kg, 1. dark period
[12] = mice, 30 nmol/kg, 2. dark period
[13] = mice, 30 nmol/kg, 3. dark period
[14] = mice, 30 nmol/kg, 4. dark period
[15] = mice, 30 nmol/kg, 5. dark period
[16] = mice, 30 nmol/kg, 6. dark period
[17] = mice, 30 nmol/kg, Baseline dark period
[18] = mice, 100 nmol/kg, 1. dark period
[19] = mice, 100 nmol/kg, 2. dark period
[20] = mice, 100 nmol/kg, 3. dark period
[21] = mice, 100 nmol/kg, 4. dark period
[22] = mice, 100 nmol/kg, 5. dark period
[23] = mice, 100 nmol/kg, 6. dark period
[24] = mice, 100 nmol/kg, Baseline dark period

Compound: CCCC[C@H](NC(=O)[C@@H](NC(=O)[C@H](CCC(=O)O)NC(=O)C(C)(C)NC(=O)[C@H](CC(N)=O)NC(=O)[C@@H](NC(=O)[C@H](CCCCNC(=O)COCCOCCNC(=O)COCCOCCNC(=O)CC[C@H](NC(=O)CC[C@H](NC(=O)CCCCCCCCCCCCCCCCCCC(=O)O)C(=O)O)C(=O)O)NC(=O)[C@H](C)NC(=O)[C@H](CCC(N)=O)NC(=O)[C@H](CCC(=O)O)NC(=O)[C@H](CCCNC(=N)N)NC(=O)[C@H](C)NC(=O)[C@H](C)NC(=O)[C@H](CCCNC(=N)N)NC(=O)[C@H](C)NC(=O)[C@H](CCCNC(=N)N)NC(=O)[C@H](C)NC(=O)[C@H](CCC(N)=O)NC(=O)[C@H](CO)NC(=O)[C@H](CC(C)C)NC(=O)[C@H](CC(C)C)NC(=O)[C@@H](NC(=O)[C@H](CCC(N)=O)NC(=O)[C@H](CC(C)C)NC(=O)[C@H](CC(C)C)NC(=O)CNC(=O)[C@@H](NC(=O)[C@@H]1CCCN1C(=O)[C@@H](NC(=O)[C@H](CC(=O)O)NC(=O)[C@H](CC(C)C)NC(=O)[C@H](CO)NC(=O)[C@H](CC(C)C)NC(=O)[C@@H](NC(=O)[C@@H](NC)[C@@H](C)CC)C(C)C)C(C)C)[C@@H](C)CC)[C@@H](C)CC)[C@@H](C)O)[C@@H](C)CC)C(=O)N[C@@H](C)C(=O)N[C@@H](CCC(=O)O)C(=O)N[C@H](C(N)=O)C(C)C [SEQ ID NO: 215] (H-[NMeI]VLSLDVPIGLLQILLSQARARAAREQAK([AEEA-AEEA-γGlu-γGlu-C20 diacid])TN[Aib]EI[Nle]AEV-NH2)
- inotropic effects (contractility) ([1]; Fig. 11A): positive inotropic effects
- coronary blood flow ([1]; Fig. 11B): increasing
- O2 consumption (rate pressure product) ([1]; Figs. 11C and 11D): increasing

Compound: CC[C@H](C)[C@H](N)C(=O)N[C@H](C(=O)N[C@@H](CC(C)C)C(=O)N[C@@H](CO)C(=O)N[C@@H](CC(C)C)C(=O)N[C@@H](CC(=O)O)C(=O)N[C@H](C(=O)N1CCC[C@H]1C(=O)N[C@H](C(=O)NCC(=O)N[C@@H](CC(C)C)C(=O)N[C@@H](CC(C)C)C(=O)N[C@@H](CCC(N)=O)C(=O)N[C@H](C(=O)N[C@@H](CC(C)C)C(=O)N[C@@H](CC(C)C)C(=O)N[C@@H](CCC(=O)O)C(=O)N[C@@H](CCC(N)=O)C(=O)N[C@@H](C)C(=O)N[C@@H](CCCNC(=N)N)C(=O)N[C@@H](C)C(=O)N[C@@H](CCCNC(=N)N)C(=O)N[C@@H](C)C(=O)N[C@@H](C)C(=O)N[C@@H](CCCNC(=N)N)C(=O)N[C@@H](CCC(=O)O)C(=O)N[C@@H](CCC(N)=O)C(=O)N[C@@H](C)C(=O)N[C@@H](CCCCNC(=O)COCCOCCNC(=O)COCCOCCNC(=O)CC[C@H](NC(=O)CC[C@H](NC(=O)CCCCCCCCCCCCCCCCCCC(=O)O)C(=O)O)C(=O)O)C(=O)N[C@H](C(=O)N[C@@H](CC(N)=O)C(=O)N[C@@H](C)C(=O)N[C@@H](CCC(=O)O)C(=O)N[C@H](C(=O)N[C@@H](CC(C)C)C(=O)N[C@@H](C)C(=O)N[C@@H](CCC(=O)O)C(=O)N[C@H](C(N)=O)C(C)C)[C@@H](C)CC)[C@@H](C)O)[C@@H](C)CC)[C@@H](C)CC)C(C)C)C(C)C [SEQ ID NO: 3] (H-IVLSLDVPIGLLQILLEQARARAAREQAK([AEEA-AEEA-γGlu-γGlu-C20 diacid])TNAEILAEV-NH2)
- Heart rate [2, 3]: permanent increase
- mean arterial blood pressure [2, 3]: transient and dose-dependent effect
- Heart rate [2, 4]: 617.82 ± 17.8 BPM
- Mean arterial pressure [2, 4]: 102.19 ± 4.0 mmHg
- Heart rate ([2]; mice, 10 nmol/kg, 1. dose): 590.34 ± 26.4 BPM
- Mean arterial pressure ([2]; mice, 10 nmol/kg, 1. dose): 97.23 ± 3.7 mmHg
- Heart rate [2, 5]: 576.21 ± 15.5 BPM
- Mean arterial pressure [2, 5]: 102.50 ± 2.9 mmHg
- Heart rate ([2]; mice, 10 nmol/kg, 2. dose): 526.42 ± 18.4 BPM
- Mean arterial pressure ([2]; mice, 10 nmol/kg, 2. dose): 89.86 ± 2.5 mmHg
- Heart rate [2, 6]: 570.38 ± 9.8 BPM
- Mean arterial pressure [2, 6]: 101.92 ± 1.5 mmHg
- Heart rate ([2]; mice, 10 nmol/kg, 3. dose): 517.24 ± 12.1 BPM
- Mean arterial pressure ([2]; mice, 10 nmol/kg, 3. dose): 89.07 ± 1.9 mmHg
- Heart rate [2, 7]: 557.65 ± 11.8 BPM
- Mean arterial pressure [2, 7]: 103.17 ± 1.7 mmHg
- Heart rate ([2]; mice, 10 nmol/kg, 4. dose): 521.88 ± 17.1 BPM
- Mean arterial pressure ([2]; mice, 10 nmol/kg, 4. dose): 96.25 ± 1.4 mmHg
- Heart rate [2, 8]: 548.23 ± 8.3 BPM
- Mean arterial pressure [2, 8]: 105.59 ± 1.5 mmHg
- Heart rate ([2]; mice, 10 nmol/kg, 5. dose): 515.46 ± 3.8 BPM
- Mean arterial pressure ([2]; mice, 10 nmol/kg, 5. dose): 93.27 ± 1.8 mmHg
- Heart rate [2, 9]: 571.18 ± 17.4 BPM
- Mean arterial pressure [2, 9]: 104.54 ± 1.8 mmHg
- Heart rate ([2]; mice, 10 nmol/kg, 6. dose): 538.37 ± 13.6 BPM
- Mean arterial pressure ([2]; mice, 10 nmol/kg, 6. dose): 99.01 ± 3.0 mmHg
- Heart rate [2, 10]: 573.24 ± 24.3 BPM
- Mean arterial pressure [2, 10]: 117.13 ± 6.7 mmHg
- Heart rate [2, 11]: 636.57 ± 28.2 BPM
- Mean arterial pressure [2, 11]: 97.14 ± 2.8 mmHg
- Heart rate ([2]; mice, 30 nmol/kg, 1. dose): 637.60 ± 39.0 BPM
- Mean arterial pressure ([2]; mice, 30 nmol/kg, 1. dose): 83.81 ± 3.9 mmHg
- Heart rate [2, 12]: 579.68 ± 23.9 BPM
- Mean arterial pressure [2, 12]: 102.00 ± 4.4 mmHg
- Heart rate ([2]; mice, 30 nmol/kg, 2. dose): 534.13 ± 15.4 BPM
- Mean arterial pressure ([2]; mice, 30 nmol/kg, 2. dose): 89.68 ± 5.3 mmHg
- Heart rate [2, 13]: 621.30 ± 9.5 BPM
- Mean arterial pressure [2, 13]: 106.02 ± 3.9 mmHg
- Heart rate ([2]; mice, 30 nmol/kg, 3. dose): 524.21 ± 17.2 BPM
- Mean arterial pressure ([2]; mice, 30 nmol/kg, 3. dose): 93.98 ± 4.5 mmHg
- Heart rate [2, 14]: 650.03 ± 9.0 BPM
- Mean arterial pressure [2, 14]: 106.67 ± 4.8 mmHg
- Heart rate ([2]; mice, 30 nmol/kg, 4. dose): 576.95 ± 21.0 BPM
- Mean arterial pressure ([2]; mice, 30 nmol/kg, 4. dose): 94.91 ± 5.0 mmHg
- Heart rate [2, 15]: 628.77 ± 14.9 BPM
- Mean arterial pressure [2, 15]: 107.74 ± 5.7 mmHg
- Heart rate ([2]; mice, 30 nmol/kg, 5. dose): 552.59 ± 12.9 BPM
- Mean arterial pressure ([2]; mice, 30 nmol/kg, 5. dose): 94.31 ± 5.2 mmHg
- Heart rate [2, 16]: 625.92 ± 11.6 BPM
- Mean arterial pressure [2, 16]: 109.48 ± 6.3 mmHg
- Heart rate ([2]; mice, 30 nmol/kg, 6. dose): 558.58 ± 15.1 BPM
- Mean arterial pressure ([2]; mice, 30 nmol/kg, 6. dose): 97.05 ± 6.6 mmHg
- Heart rate [2, 17]: 573.65 ± 26.2 BPM
- Mean arterial pressure [2, 17]: 111.32 ± 3.0 mmHg
- Heart rate [2, 18]: 593.28 ± 23.1 BPM
- Mean arterial pressure [2, 18]: 86.82 ± 2.2 mmHg
- Heart rate ([2]; mice, 100 nmol/kg, 1. dose): 692.31 ± 7.0 BPM
- Mean arterial pressure ([2]; mice, 100 nmol/kg, 1. dose): 83.22 ± 5.6 mmHg
- Heart rate [2, 19]: 517.97 ± 16.2 BPM
- Mean arterial pressure [2, 19]: 98.30 ± 4.8 mmHg
- Heart rate ([2]; mice, 100 nmol/kg, 2. dose): 507.39 ± 8.1 BPM
- Mean arterial pressure ([2]; mice, 100 nmol/kg, 2. dose): 89.63 ± 4.9 mmHg
- Heart rate [2, 20]: 591.77 ± 7.0 BPM
- Mean arterial pressure [2, 20]: 101.88 ± 5.1 mmHg
- Heart rate ([2]; mice, 100 nmol/kg, 3. dose): 536.49 ± 10.4 BPM
- Mean arterial pressure ([2]; mice, 100 nmol/kg, 3. dose): 92.77 ± 4.1 mmHg
- Heart rate [2, 21]: 606.21 ± 10.1 BPM
- Mean arterial pressure [2, 21]: 103.60 ± 5.3 mmHg
- Heart rate ([2]; mice, 100 nmol/kg, 4. dose): 560.41 ± 16.0 BPM
- Mean arterial pressure ([2]; mice, 100 nmol/kg, 4. dose): 94.17 ± 3.4 mmHg
- Heart rate [2, 22]: 619.17 ± 11.0 BPM
- Mean arterial pressure [2, 22]: 103.68 ± 4.4 mmHg
- Heart rate ([2]; mice, 100 nmol/kg, 5. dose): 554.35 ± 15.3 BPM
- Mean arterial pressure ([2]; mice, 100 nmol/kg, 5. dose): 91.26 ± 2.0 mmHg
- Heart rate [2, 23]: 612.05 ± 11.8 BPM
- Mean arterial pressure [2, 23]: 103.45 ± 3.1 mmHg
- Heart rate ([2]; mice, 100 nmol/kg, 6. dose): 550.11 ± 16.2 BPM
- Mean arterial pressure ([2]; mice, 100 nmol/kg, 6. dose): 88.76 ± 1.3 mmHg
- Heart rate [2, 24]: 581.49 ± 7.7 BPM
- Mean arterial pressure [2, 24]: 108.55 ± 1.2 mmHg
